Measurements from US20230102554A1 (GB002, INC., priority 2019, published 2023).

Experiments:
[1] = target: T1, Human PDGFRα, cytoplasmic domain (GST-PDGFRα) (Homo sapiens, UniProt P16234); assay: Human PDGFRα biochemical inhibition assay (off-chip Mobility Shift Assay)
T1 construct: made in house

[2] = target: T2, Human PDGFRβ, cytoplasmic domain (GST-PDGFRβ) (Homo sapiens, UniProt P09619); assay: Human PDGFRβ biochemical inhibition assay (off-chip Mobility Shift Assay)
T2 construct: made in house
T2 sequence (P09619 with tags, fused parts or gaps): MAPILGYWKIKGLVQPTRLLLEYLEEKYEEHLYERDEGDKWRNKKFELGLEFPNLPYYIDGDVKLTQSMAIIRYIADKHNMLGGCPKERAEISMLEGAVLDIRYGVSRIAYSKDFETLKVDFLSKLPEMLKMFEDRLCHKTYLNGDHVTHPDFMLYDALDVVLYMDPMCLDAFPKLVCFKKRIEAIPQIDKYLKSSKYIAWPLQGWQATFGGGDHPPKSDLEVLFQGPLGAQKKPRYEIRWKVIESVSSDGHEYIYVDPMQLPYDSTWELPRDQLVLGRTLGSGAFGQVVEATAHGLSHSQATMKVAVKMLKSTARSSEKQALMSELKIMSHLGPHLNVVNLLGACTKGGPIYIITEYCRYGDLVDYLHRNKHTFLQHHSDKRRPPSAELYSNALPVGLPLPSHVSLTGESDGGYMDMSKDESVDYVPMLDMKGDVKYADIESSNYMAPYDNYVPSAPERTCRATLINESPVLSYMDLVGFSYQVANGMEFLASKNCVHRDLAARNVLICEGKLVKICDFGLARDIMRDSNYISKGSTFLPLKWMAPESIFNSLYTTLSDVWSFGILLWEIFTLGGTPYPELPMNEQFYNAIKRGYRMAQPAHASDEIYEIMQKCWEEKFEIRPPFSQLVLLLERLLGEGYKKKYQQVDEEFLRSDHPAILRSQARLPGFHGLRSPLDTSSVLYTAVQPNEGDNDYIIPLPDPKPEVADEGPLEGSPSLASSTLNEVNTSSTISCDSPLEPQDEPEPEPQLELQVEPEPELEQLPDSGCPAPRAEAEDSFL
Method in brief: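 GST-tagged cytoplasmic domain (aa 557-1106) from baculovirus was incubated 1 h at room temperature with compound, CSKtide, ATP at Km and Mg²⁺ in HEPES buffer, pH 7.5. Phosphorylated and unphosphorylated peptide were separated by off-chip mobility shift, and the product ratio P/(P+S) gave percent inhibition.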

T1 sequence (P16234 550-1089 T674I): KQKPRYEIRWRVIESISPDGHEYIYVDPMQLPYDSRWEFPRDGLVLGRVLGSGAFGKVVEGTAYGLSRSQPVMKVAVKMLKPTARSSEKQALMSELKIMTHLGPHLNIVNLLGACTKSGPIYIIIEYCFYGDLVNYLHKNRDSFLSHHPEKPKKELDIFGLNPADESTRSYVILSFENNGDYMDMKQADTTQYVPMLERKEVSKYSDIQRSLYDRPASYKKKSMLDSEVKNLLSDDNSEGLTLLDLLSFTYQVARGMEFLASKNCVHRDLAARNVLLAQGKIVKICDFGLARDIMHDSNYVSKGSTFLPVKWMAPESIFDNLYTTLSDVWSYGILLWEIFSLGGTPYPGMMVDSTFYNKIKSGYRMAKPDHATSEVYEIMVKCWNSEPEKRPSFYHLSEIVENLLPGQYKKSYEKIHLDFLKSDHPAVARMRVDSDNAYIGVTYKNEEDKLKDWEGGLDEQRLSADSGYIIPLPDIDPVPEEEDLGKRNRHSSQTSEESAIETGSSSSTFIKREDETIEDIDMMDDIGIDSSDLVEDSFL

| IC50 [1] [nM] | IC50 [2] [nM] | Structure (SMILES) |
| --- | --- | --- |
| < 300 | < 300 | CCOC(=O)c1ccc(C(=O)Nc2cccc([C@H](C)Nc3cnc4cnn(C)c4n3)c2)cc1C [Compound 255, ethyl (S)-2-methyl-4-((3-(1-((1-methyl-1H-pyrazolo[3,4-b]pyrazin-6-yl)amino)ethyl)phenyl)carbamoyl)benzoate] |
| < 300 | 300 to 1000 | CCn1cc2ncc(N[C@@H](C)c3cccc(NC(=O)c4cnc(C#N)c(C)c4)c3)nc2n1 [Compound 289, (S)-6-cyano-N-(3-(1-((2-ethyl-2H-pyrazolo[3,4-b]pyrazin-6-yl)amino)ethyl)phenyl)-5-methylnicotinamide] |
| < 300 | 300 to 1000 | CCn1cc2ncc(N[C@@H](C)c3cc(NC(=O)Cc4cncc(C(F)(F)F)c4)ccc3F)nc2n1 [Compound 685, (S)-N-(3-(1-((2-ethyl-2H-pyrazolo[3,4-b]pyrazin-6-yl)amino)ethyl)-4-fluorophenyl)-2-(5-(trifluoromethyl)pyridin-3-yl) acetamide] |
| < 300 | < 300 | Cc1n[nH]c2ncc(N[C@@H](C)c3cccc(NC(=O)c4cc(C(C)C)on4)c3)nc12 [Compound 542, (S)-5-isopropyl-N-(3-(1-((3-methyl-1H-pyrazolo[3,4-b]pyrazin-5-yl)amino)ethyl)phenyl)isoxazole-3-carboxamide] |
| < 300 | < 300 | Cc1cc(C(=O)Nc2cccc([C@H](C)Nc3cnc4cnn(C)c4n3)c2)ccc1C#N [Compound 193, (S)-4-cyano-3-methyl-N-(3-(1-((1-methyl-1H-pyrazolo[3,4-b]pyrazin-6-yl)amino)ethyl)phenyl)benzamide] |
| < 300 | < 300 | Cc1cc(C(=O)Nc2cccc([C@H](C)Nc3cnc4cnn(C)c4n3)c2)ccc1C(=O)OCCO [Compound 257, 2-hydroxyethyl (S)-2-methyl-4-((3-(1-((1-methyl-1H-pyrazolo[3,4-b]pyrazin-6-yl)amino)ethyl)phenyl)carbamoyl) benzoate] |
| < 300 | < 300 | CCn1cc2ncc(N[C@@H](C)c3cccc(NC(=O)c4cnc(OC)c(Cl)c4)c3)nc2n1 [Compound 356, (S)-5-chloro-N-(3-(1-((2-ethyl-2H-pyrazolo[3,4-b]pyrazin-6-yl)amino)ethyl)phenyl)-6-methoxynicotinamide] |
| 300 to 1000 | ≥ 1000 | C[C@H](Nc1cnc2cnn(C)c2n1)c1cccc(NC(=O)c2cnccc2F)c1 [Compound 131, (S)-4-fluoro-N-(3-(1-((1-methyl-1H-pyrazolo[3,4-b]pyrazin-6-yl)amino)ethyl)phenyl) nicotinamide] |
| < 300 | < 300 | Cc1cc(C(=O)Nc2cccc([C@H](C)Nc3cnc4cnn(C)c4n3)c2)ccc1C(=O)OCCN [Compound 266, 2-aminoethyl (S)-2-methyl-4-((3-(1-((1-methyl-1H-pyrazolo[3,4-b]pyrazin-6-yl)amino)ethyl)phenyl)carbamoyl) benzoate] |
| < 300 | < 300 | Cc1cncc(C(=O)Nc2cccc([C@H](C)Nc3cnc4cnn(-c5ccccn5)c4n3)c2)c1 [Compound 272, (S)-5-methyl-N-(3-(1-((1-(pyridin-2-yl)-1H-pyrazolo[3,4-b]pyrazin-6-yl)amino)ethyl)phenyl)nicotinamide] |
| < 300 | < 300 | CCn1cc2ncc(N[C@@H](C)c3cc(NC(=O)c4ccc(F)c(Cl)c4)ccc3C)nc2n1 [Compound 507, (S)-3-chloro-N-(3-(1-((2-ethyl-2H-pyrazolo[3,4-b]pyrazin-6-yl)amino)ethyl)-4-methylphenyl)-4-fluorobenzamide] |
| < 300 | 300 to 1000 | CCNc1ncc(C(=O)Nc2cccc([C@H](C)Nc3cnc4cn(CC)nc4n3)c2)cc1C [Compound 333, (S)-N-(3-(1-((2-ethyl-2H-pyrazolo[3,4-b]pyrazin-6-yl)amino)ethyl)phenyl)-6-(ethylamino)-5-methylnicotinamide] |
| < 300 | < 300 | CCn1cc2ncc(N[C@@H](C)c3cccc(NC(=O)c4ccc(OC(C)C)nc4)c3)nc2n1 [Compound 287, (S)-N-(3-(1-((2-ethyl-2H-pyrazolo[3,4-b]pyrazin-6-yl)amino)ethyl)phenyl)-6-isopropoxynicotinamide] |
| < 300 | < 300 | CCn1cnc2ccc(C(=O)Nc3cccc([C@H](C)Nc4cnc5cnn(C)c5n4)c3)cc21 [Compound 74, (S)-1-ethyl-N-(3-(1-((1-methyl-1H-pyrazolo[3,4-b]pyrazin-6-yl)amino)ethyl)phenyl)-1H-benzo[d]imidazole-6-carboxamide] |
| < 300 | < 300 | CCn1cc2ncc(N[C@@H](C)c3cc(NC(=O)c4cnc(C)c(C)c4)ccc3C)nc2n1 [Compound 509, (S)-N-(3-(1-((2-ethyl-2H-pyrazolo[3,4-b]pyrazin-6-yl)amino)ethyl)-4-methylphenyl)-5,6-dimethylnicotinamide] |
| ≥ 1000 | ≥ 1000 | CCn1cc2ncc(N[C@@H](C)c3cccc(NC(=O)c4cnc(CO)s4)c3)nc2n1 [Compound 363, (S)-N-(3-(1-((2-ethyl-2H-pyrazolo[3,4-b]pyrazin-6-yl)amino)ethyl)phenyl)-2-(hydroxymethyl)thiazole-5-carboxamide] |
| < 300 | < 300 | C[C@H](Nc1cnc2cnn(C)c2n1)c1cccc(NC(=O)c2cc(C(C)(C)C)n(C)n2)c1 [Compound 166, (S)-5-(tert-butyl)-1-methyl-N-(3-(1-((1-methyl-1H-pyrazolo[3,4-b]pyrazin-6-yl)amino)ethyl)phenyl)-1H-pyrazole-3-carboxamide] |
| < 300 | < 300 | C[C@H](Nc1cnc2cnn(C)c2n1)c1cccc(NC(=O)c2ccc(C(F)(F)F)s2)c1 [Compound 137, (S)-N-(3-(1-((1-methyl-1H-pyrazolo[3,4-b]pyrazin-6-yl)amino)ethyl)phenyl)-5-(trifluoromethyl)thiophene-2-carboxamide] |
| < 300 | < 300 | CCn1cc2ncc(N[C@@H](C)c3cccc(NC(=O)c4ccc(C)c(Cl)c4)c3)nc2n1 [Compound 332, (S)-3-chloro-N-(3-(1-((2-ethyl-2H-pyrazolo[3,4-b]pyrazin-6-yl)amino)ethyl)phenyl)-4-methylbenzamide] |
| < 300 | < 300 | C[C@H](Nc1cnc2cnn(C)c2n1)c1cccc(NC(=O)c2ccc(OC(F)(F)F)nc2)c1 [Compound 119, (S)-N-(3-(1-((1-methyl-1H-pyrazolo[3,4-b]pyrazin-6-yl)amino)ethyl)phenyl)-6-(trifluoromethoxy)nicotinamide] |
| < 300 | ≥ 1000 | CCn1cc2ncc(N[C@@H](C)c3cccc(NC(=O)Nc4cnn(CC5CC5)c4)c3)nc2n1 [Compound 741, (S)-1-(1-(cyclopropylmethyl)-1H-pyrazol-4-yl)-3-(3-(1-((2-ethyl-2H-pyrazolo[3,4-b]pyrazin-6-yl)amino)ethyl)phenyl)urea] |
| < 300 | < 300 | CCc1c[nH]c2ncc(N[C@@H](C)c3cccc(NC(=O)c4cncc(C)c4)c3)nc12 [Compound 564, (S)-N-(3-(1-((7-ethyl-5H-pyrrolo[2,3-b]pyrazin-2-yl)amino)ethyl)phenyl)-5-methylnicotinamide] |
| < 300 | < 300 | CCn1cc2ncc(N[C@@H](C)c3cccc(NC(=O)c4ccc(CN5CCC5)c(Cl)c4)c3)nc2n1 [Compound 486, (S)-4-(azetidin-1-ylmethyl)-3-chloro-N-(3-(1-((2-ethyl-2H-pyrazolo[3,4-b]pyrazin-6-yl)amino)ethyl)phenyl)benzamide] |
| < 300 | < 300 | CCn1cc2ncc(N[C@@H](C)c3cccc(NC(=O)c4ccc(C(F)(F)F)c(C)c4)c3)nc2n1 [Compound 439, (S)-N-(3-(1-((2-ethyl-2H-pyrazolo[3,4-b]pyrazin-6-yl)amino)ethyl)phenyl)-3-methyl-4-(trifluoromethyl)benzamide] |
| ≥ 1000 | ≥ 1000 | Cc1cncc(C(=O)Nc2cccc([C@H](C)Nc3cnc4ccn(CCN5CCOCC5)c4n3)c2)c1 [Compound 85, (S)-5-methyl-N-(3-(1-((5-(2-morpholinoethyl)-5H-pyrrolo [2,3-b]pyrazin-3-yl)amino)ethyl)phenyl)nicotinamide] |
| < 300 | < 300 | Cc1cc(C(=O)Nc2cccc([C@H](C)Nc3cnc4cnn(C)c4n3)c2)cnc1N1CCSCC1 [Compound 260, (S)-5-methyl-N-(3-(1-((1-methyl-1H-pyrazolo[3,4-b]pyrazin-6-yl)amino)ethyl)phenyl)-6-thiomorpholinonicotinamide] |
| < 300 | < 300 | CCn1cc2ncc(N[C@@H](C)c3cc(NC(=O)c4ccc(CN5CCOCC5)c(C)c4)ccc3C)nc2n1 [Compound 523, (S)-N-(3-(1-((2-ethyl-2H-pyrazolo[3,4-b]pyrazin-6-yl)amino)ethyl)-4-methylphenyl)-3-methyl-4-(morpholinomethyl) benzamide] |
| < 300 | < 300 | COc1ncc(C(=O)Nc2cccc([C@H](C)Nc3cnc4cnn(C)c4n3)c2)cc1C(F)(F)F [Compound 247, (S)-6-methoxy-N-(3-(1-((1-methyl-1-pyrazolo[3,4-b]pyrazin-6-yl)amino)ethyl)phenyl)-5-(trifluoromethyl) nicotinamide] |
| < 300 | < 300 | Cc1ncc(C(=O)Nc2cccc([C@H](C)Nc3cnc4cnn(C)c4n3)c2)cc1F [Compound 250, (S)-5-fluoro-6-methyl-N-(3-(1-((1-methyl-1H-pyrazolo[3,4-b]pyrazin-6-yl)amino)ethyl)phenyl)nicotinamide] |
| < 300 | < 300 | C[C@H](Nc1cnc2cnn(C)c2n1)c1cccc(NC(=O)c2ccc(C3CC3)nc2)c1 [Compound 116, (S)-6-cyclopropyl-N-(3-(1-((1-methyl-1H-pyrazolo[3,4-b]pyrazin-6-yl)amino)ethyl)phenyl)nicotinamide] |
